Measured values from patent publication US11001572B2, “Pyrimidine derivative, method for preparing same and use thereof in medicine” (Zhejiang Hisun Pharmaceutical Co., Ltd., priority 2016, dated 2021).

Columns and labels:
[1] = Body weight and weight loss rate of Huh7 tumor-bearing mice during administration; type: in vivo, BALB/c nude mice; details: 25 mg/kg (IP, bid), 50 mg/kg (IP, bid) and 300 mg/kg (PO, bid); within 22 days
Description: (§1) Each group of animals was administrated (intraperitoneal injection (ip) or oral administration (po)) a test substance twice a day (bid) at a fix time per day according to the body weight of the animals. The first dose was administered on the day of grouping ([…]), and continued for 22 days, the body weight of the animals was recorded daily.
The calculation formula for the weight loss rate of animals is (see FIG. 3 for the results): Weight loss rate of animals=100%×(BWinitial−BWt)/BWinitial
wherein, BWt represents the body weight of the animal at each measurement during administration; BWinitial represents the body weight of the animal at the time of grouping administration.

[2] = tested on: Huh7 tumor-bearing BALB/c nude mice xenografts; experiment: Growth inhibition of Huh7 xenografts in BALB/c nude mice; type: in vivo; details: 25 mg/kg IP, bid
Description: On day 0, Huh7 cells were cultured in DMEM medium containing 10% of fetal bovine serum, 100 U of penicillin, and 100 μg/mL of streptomycin. And cultured in an incubator of 37° C., 5% CO2.
Each mouse was inoculated subcutaneously in the right axilla with 150 μL of cell suspension (5.0×10^6 cells/mouse) under sterile conditions. On day 12 after inoculation, when the tumor grew to a volume of 200-300 mm^3, mice with similar tumor volume and good shape were selected (the shape was as single spherical as possible, no irregular shape or multiple tumors gathered together) and divided into 5 groups, each group had 9 mice.
as §1
The formation of tumor in the inoculated part of each group of animals was observed. The long diameter (Y) and short diameter (X) of the tumor nodules were measured twice a week using vernier calipers and calculated according to the following formula: Volume of tumor nodules(V):V=(X^2Y)/2.
Evaluation index of antitumor activity: tumor growth inhibition rate TGI (%), relative tumor proliferation rate T/C (%).
The relative tumor volume (RTV) is calculated as: RTV=100×TVt/TVinitial
The calculation formula for the relative tumor proliferation rate (% T/C) is: % T/C=100%×(RTVT/RTVC)

Row | SMILES | body weight change [1] | Tumor growth inhibition rate (TGI %) ([2]; Day 16 after inoculation) [%] | Tumor growth inhibition rate (TGI %) ([2]; Day 20 after inoculation) [%] | Tumor growth inhibition rate (TGI %) ([2]; Day 23 after inoculation) [%] | Tumor growth inhibition rate (TGI %) ([2]; Day 27 after inoculation) [%] | Tumor growth inhibition rate (TGI %) ([2]; Day 30 after inoculation) [%] | Tumor growth inhibition rate (TGI %) ([2]; Day 34 after inoculation) [%] | Tumor weight inhibition rate (%) ([2]; end of the experiment)
1 | C=CC(=O)Nc1cc(N2CCN(CC)C3(CC3)C2)ccc1Nc1cc(N(C)C(=O)Nc2c(Cl)c(OC)cc(OC)c2Cl)ncn1 [Example 5, N-(2-((6-(3-(2,6-Dichloro-3,5-dimethoxyphenyl)-1-methylureido)pyrimidin-4-yl)amino)-5-(4-ethyl-4,7-diazaspiro[2.5]octan-7-yl)phenyl)acrylamide] | no significant body weight change |  |  |  |  |  |  | 
2 | C=CC(=O)Nc1cc(N2CCN(CC)CC2)ccc1Nc1cc(N(C)C(=O)Nc2c(Cl)c(OC)cc(OC)c2Cl)ncn1 [Example 108 of WO2015057938] |  | 34 | 21 | 21 | 29 | 24 | 16 | 2.2
